From patent US6737383B1, “Herbicidal oxadiazolidines” (priority 1999, dated 2004)

Assays:
[1] = tested on: giant foxtail; test: Test B pre/postemergence giant foxtail; assay type: in vivo, Setaria faberii
How it was run: (§1)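 Herbicidal effect was estimated by eye on a ten-point control scale after plants spent twelve to sixteen days in a greenhouse following soil or foliar treatment. Foliar sprays targeted plants at one to four leaves; all doses were formulated in a non-phytotoxic solvent with surfactant.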

[2] = tested on: surinam grass; test: Test B pre/postemergence surinam grass; assay type: in vivo, Brachiaria decumbens
How it was run: as §1

[3] = tested on: soybean; test: Test B pre/postemergence soybean; assay type: in vivo, Glycine max
How it was run: as §1

[4] = tested on: smallflower flatsedge; test: Test B flood test smallflower flatsedge; assay type: in vivo, Cyperus difformis
How it was run: (§2)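 Read-out is a visual response score from 0 (no effect) to 10 (complete control), assigned by comparison with untreated controls. Treatment was applied at the 2-leaf stage, and plants stayed in the greenhouse for twelve to sixteen days before scoring.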

[5] = tested on: bedstraw; test: Test B pre/postemergence bedstraw; assay type: in vivo, Galium aparine
How it was run: as §1

[6] = tested on: pigweed; test: Test B pre/postemergence pigweed; assay type: in vivo, Amaranthus retroflexus
How it was run: as §1

[7] = tested on: morningglory; test: Test B pre/postemergence morningglory; assay type: in vivo, Ipomoea hederacea
How it was run: as §1

[8] = tested on: cocklebur; test: Test B pre/postemergence cocklebur; assay type: in vivo, Xanthium strumarium
How it was run: as §1

[9] = tested on: corn; test: Test B pre/postemergence corn; assay type: in vivo, Zea mays
How it was run: as §1

[10] = tested on: velvetleaf; test: Test B pre/postemergence velvetleaf; assay type: in vivo, Abutilon theophrasti
How it was run: as §1

[11] = tested on: rape; test: Test B pre/postemergence rape; assay type: in vivo, Brassica napus
How it was run: as §1

[12] = tested on: blackgrass; test: Test B pre/postemergence blackgrass; assay type: in vivo, Alopecurus myosuroides
How it was run: as §1

[13] = tested on: sugar beet; test: Test B pre/postemergence sugar beet; assay type: in vivo, Beta vulgaris
How it was run: as §1

[14] = tested on: wild oat; test: Test B pre/postemergence wild oat; assay type: in vivo, Avena fatua
How it was run: as §1

[15] = tested on: wheat; test: Test B pre/postemergence wheat; assay type: in vivo, Triticum aestivum
How it was run: as §1

[16] = tested on: rice; test: Test B flood test rice; assay type: in vivo, Oryza sativa
How it was run: as §2

[17] = Postemergence, Rate 62 g/ha, scale 0 to 10, 0 is no effect, 10 is complete control
[18] = Postemergence, Rate 250 g/ha, scale 0 to 10, 0 no effect, 10 complete control
[19] = Preemergence, Rate 62 g/ha, scale 0 to 10, 0 is no effect, 10 is complete control
[20] = Preemergence, Rate 125 g/ha, scale 0 to 10 (0 no effect, 10 complete control)
[21] = Preemergence, Rate 250 g/ha, scale of 0 to 10 where 0 is no effect and 10 is complete control
[22] = Preemergence, Rate 500 g/ha, scale 0 (no effect) to 10 (complete control)
[23] = Rate 125 g/ha, Postemergence, scale 0 to 10, 0 no effect, 10 complete control
[24] = Rate 500 g/ha, Postemergence, 0 to 10 scale (0 no effect, 10 complete control)
[25] = Rate 125 g/ha, Postemergence section (flood test species), scale 0 to 10, 0 no effect, 10 complete control
[26] = Rate 250 g/ha, headed Pre-emergence (flood test species), scale 0 to 10 (0 no effect, 10 complete control)
[27] = Rate 500 g/ha, headed Pre-emergence (flood test species), scale 0 to 10 (0 no effect, 10 complete control)
[28] = Rate 2000 g/ha, Pre-emergence (as headed), scale 0 to 10
[29] = flood test, listed under Postemergence, Rate 250 g/ha, scale 0 to 10, 0 no effect, 10 complete control

Cc1cccc(C)c1-n1c(=O)on(C(=O)N(c2ccccc2)C(C)C)c1=O [Compound 46]
6: Giant foxtail plant response rating [1, 24] | Plant response rating, Redroot pigweed [6, 21] | Blackgrass plant response rating [12, 18] | Blackgrass plant response rating [12, 24] | Sugarbeets plant response rating [13, 22]
1: Giant foxtail plant response rating [1, 18] | Giant foxtail plant response rating [1, 23] | Soybean plant response rating [3, 17] | Soybean plant response rating [3, 18] | Soybean plant response rating [3, 23] | Morningglory plant response rating [7, 18] | Cocklebur plant response rating [8, 18] | Cocklebur plant response rating [8, 23]
10: Plant response rating, Giant foxtail [1, 19] | Plant response rating, Giant foxtail [1, 20] | Plant response rating, Giant foxtail [1, 21] | Giant foxtail plant response rating [1, 22]
2: Plant response rating, B. signalgrass [2, 21] | Morningglory plant response rating [7, 24] | Cocklebur plant response rating [8, 24] | Velvetleaf plant response rating [10, 22] | Plant response rating, Blackgrass [12, 21]
8: S. Flatsedge plant response rating [4, 28]
9: Redroot pigweed plant response rating [6, 22]
0: Giant foxtail plant response rating [1, 17] | B. signalgrass plant response rating [2, 17] | B. signalgrass plant response rating [2, 18] | Plant response rating, B. signalgrass [2, 19] | Plant response rating, B. signalgrass [2, 20] | B. signalgrass plant response rating [2, 23] | B. signalgrass plant response rating [2, 24] | Plant response rating, Soybean [3, 19] | Plant response rating, Soybean [3, 20] | Plant response rating, Soybean [3, 21] | Soybean plant response rating [3, 22] | S. Flatsedge plant response rating [4, 17] | S. Flatsedge plant response rating ([4]; Pre-emergence, Rate 1000 g/ha, scale 0 to 10 (0 no effect, 10 complete control)) | S. Flatsedge plant response rating [4, 25] | S. Flatsedge plant response rating [4, 26] | Plant response rating, S. Flatsedge [4, 27] | S. Flatsedge plant response rating [4, 29] | Bedstraw plant response rating [5, 17] | Plant response rating, Bedstraw [5, 19] | Plant response rating, Bedstraw [5, 20] | Plant response rating, Bedstraw [5, 21] | Bedstraw plant response rating [5, 22] | Bedstraw plant response rating [5, 23] | Redroot pigweed plant response rating [6, 17] | Redroot pigweed plant response rating [6, 18] | Plant response rating, Redroot pigweed [6, 19] | Plant response rating, Redroot pigweed [6, 20] | Redroot pigweed plant response rating [6, 23] | Redroot pigweed plant response rating [6, 24] | Morningglory plant response rating [7, 17] | Plant response rating, Morningglory [7, 19] | Plant response rating, Morningglory [7, 20] | Plant response rating, Morningglory [7, 21] | Morningglory plant response rating [7, 22] | Morningglory plant response rating [7, 23] | Cocklebur plant response rating [8, 17] | Plant response rating, Cocklebur [8, 19] | Plant response rating, Cocklebur [8, 20] | Plant response rating, Cocklebur [8, 21] | Cocklebur plant response rating [8, 22] | Corn plant response rating [9, 17] | Corn plant response rating [9, 18] | Plant response rating, Corn [9, 19] | Plant response rating, Corn [9, 20] | Plant response rating, Corn [9, 21] | Corn plant response rating [9, 22] | Corn plant response rating [9, 23] | Corn plant response rating [9, 24] | Velvetleaf plant response rating [10, 17] | Velvetleaf plant response rating [10, 18] | Plant response rating, Velvetleaf [10, 19] | Plant response rating, Velvetleaf [10, 20] | Plant response rating, Velvetleaf [10, 21] | Velvetleaf plant response rating [10, 23] | Rape plant response rating [11, 17] | Rape plant response rating [11, 18] | Plant response rating, Rape [11, 19] | Plant response rating, Rape [11, 20] | Plant response rating, Rape [11, 21] | Rape plant response rating [11, 22] | Rape plant response rating [11, 23] | Rape plant response rating [11, 24] | Blackgrass plant response rating [12, 17] | Plant response rating, Blackgrass [12, 19] | Plant response rating, Blackgrass [12, 20] | Blackgrass plant response rating [12, 23] | Sugarbeets plant response rating [13, 17] | Sugarbeets plant response rating [13, 18] | Plant response rating, Sugarbeets [13, 19] | Sugarbeets plant response rating [13, 23] | Wild oats plant response rating [14, 17] | Wild oats plant response rating [14, 18] | Plant response rating, Wild oats [14, 20] | Plant response rating, Wild oats [14, 21] | Wild oats plant response rating [14, 22] | Wild oats plant response rating [14, 23] | Wheat plant response rating [15, 17] | Wheat plant response rating [15, 18] | Plant response rating, Wheat [15, 19] | Plant response rating, Wheat [15, 20] | Plant response rating, Wheat [15, 21] | Wheat plant response rating [15, 22] | Wheat plant response rating [15, 23] | Rice plant response rating [16, 17] | Rice plant response rating [16, 25] | Rice plant response rating [16, 26] | Rice plant response rating ([16]; Rate 500 g/ha, Postemergence section of Table B, 0 to 10 scale (0 no effect, 10 complete control)) | Plant response rating, Rice [16, 27] | Rice plant response rating ([16]; Rate 1000 g/ha, Pre-emergence (as headed), scale 0 to 10) | Rice plant response rating [16, 28] | Rice plant response rating [16, 29]
3: B. signalgrass plant response rating [2, 22] | Plant response rating, Sugarbeets [13, 20] | Plant response rating, Sugarbeets [13, 21]
7: Blackgrass plant response rating [12, 22]
